Values quoted from earlier work, collected in US7091182B2, “Method for assisting in differential diagnosis and treatment of autistic syndromes” (Repligen Corporation, priority 1997, dated 2006).

System: autistic patients
Settings: cited from earlier work

Question: For `O=C1CC[C@@]2(O)[C@H]3Cc4ccc(O)c5c4[C@@]2(CCN3CC2CC2)[C@H]1O5` [naltrexone], which social behavior (double-blinded studies) is on record?
Answer: failed to produce significant changes

Question: What about the positive response (open trial in autistic children) of the same molecule?
Answer: 8 to 10 children were judged to show a positive response
